Assay results published in ChEMBL document CHEMBL3124761, “Synthesis and biological evaluation of N,N'-squaramides with high in vivo efficacy and low toxicity: toward a low-cost drug against Chagas disease” (J Med Chem, 2014).
pIC50: −log10 of the molar value. Blank lines part the entries; values can stand above or below the molecule they belong to. Activity calls are given as the source filed them. The calls are words filed in the database; no cut-off is given here.

Tests used:
Trypanosoma cruzi [1] = assay: Antitrypanosomal activity against epimastigote stage of Trypanosoma cruzi IRHOD/CO/2008/SN3 assessed as change in excreted acetate level at IC25 after 96 hrs by 1H NMR analysis relative to control; format: functional
Mus musculus [2] = assay: Toxicity in BALB/c albino mouse infected with blood trypomastigote stage of Trypanosoma cruzi assessed as change in total bilirubin level in serum at 25 mg/kg, ip administered on day 7 to 12 post-infection measured after day 120 relative to control; format: organism-based; set-up: dose 25 mg/kg, route intraperitoneal; conditions: in vivo
[3] = Selectivity index, ratio of IC50 for African green monkey Vero cells to IC50 for epimastigote stage of Trypanosoma cruzi IRHOD/CO/2008/SN3; format: toxicity, cell-based; conditions: read-out: Ratio IC50
Mus musculus [4] = assay: Toxicity in BALB/c albino mouse infected with blood trypomastigote stage of Trypanosoma cruzi assessed as change in alkaline phosphatase level in serum at 25 mg/kg, ip administered on day 7 to 12 post-infection measured after day 120 relative to control; format: organism-based; set-up: dose 25 mg/kg, route intraperitoneal; conditions: in vivo
Trypanosoma cruzi [5] = assay: Trypanocidal activity against metacyclic trypomastigote stage of Trypanosoma cruzi infected in BALB/c albino mouse acute chagas disease model assessed as reduction of parasite burden at 25 mg/kg, ip administered on day 7 to 12 post-infection measured on day 14 by ELISA; format: functional, organism-based; set-up: dose 25 mg/kg
[6] = Selectivity index, ratio of IC50 for African green monkey Vero cells to IC50 for amastigote stage of Trypanosoma cruzi IRHOD/CO/2008/SN3 infected in African green monkey Vero cells; format: toxicity, cell-based; conditions: read-out: Ratio IC50
Mus musculus [7] = assay: Toxicity in BALB/c albino mouse assessed as mortality at 25 mg/kg, ip administered for 5 days; format: organism-based; set-up: dose 25 mg/kg, route intraperitoneal; conditions: in vivo, 120 h
Trypanosoma cruzi [8] = assay: Antitrypanosomal activity against epimastigote stage of Trypanosoma cruzi IRHOD/CO/2008/SN3 assessed as change in excreted lactate level at IC25 after 96 hrs by 1H NMR analysis relative to control; format: functional
Mus musculus [9] = assay: Toxicity in BALB/c albino mouse infected with blood trypomastigote stage of Trypanosoma cruzi assessed as change in urea level in serum at 25 mg/kg, ip administered on day 7 to 12 post-infection measured after day 120 relative to control; format: organism-based; set-up: dose 25 mg/kg, route intraperitoneal; conditions: in vivo
Mus musculus [10] = assay: Toxicity in BALB/c albino mouse infected with blood trypomastigote stage of Trypanosoma cruzi assessed as change in LDH level in serum at 25 mg/kg, ip administered on day 7 to 12 post-infection measured after day 120 relative to control; format: organism-based; set-up: dose 25 mg/kg, route intraperitoneal; conditions: in vivo
Trypanosoma cruzi [11] = assay: Antitrypanosomal activity against epimastigote stage of Trypanosoma cruzi IRHOD/CO/2008/SN3 assessed as formation of electron-dense vacuoles at IC25 after 72 hrs by TEM analysis; format: functional, organism-based
Trypanosoma cruzi [12] = assay: Trypanocidal activity against metacyclic trypomastigote stage of Trypanosoma cruzi infected in BALB/c albino mouse acute chagas disease model assessed as inhibition of parasitemia at 25 mg/kg, ip administered on day 7 to 12 post-infection measured every 2 days until day 40 […] relative to control; format: functional; conditions: route intraperitoneal
Trypanosoma cruzi [13] = assay: Antitrypanosomal activity against epimastigote stage of Trypanosoma cruzi IRHOD/CO/2008/SN3 assessed as change in excreted pyruvate level at IC25 after 96 hrs by 1H NMR analysis relative to control; format: functional
Mus musculus [14] = assay: Toxicity in BALB/c albino mouse infected with blood trypomastigote stage of Trypanosoma cruzi assessed as change in ALT/GPT level in serum at 25 mg/kg, ip administered on day 7 to 12 post-infection measured after day 120 relative to control; format: organism-based; set-up: dose 25 mg/kg, route intraperitoneal; conditions: in vivo
Trypanosoma cruzi [15] = assay: Antitrypanosomal activity against epimastigote stage of Trypanosoma cruzi IRHOD/CO/2008/SN3 assessed as change in excreted succinate level at IC25 after 96 hrs by 1H NMR analysis relative to control; format: functional
Mus musculus [16] = assay: Toxicity in BALB/c albino mouse infected with blood trypomastigote stage of Trypanosoma cruzi assessed as increase in creatinephophokinase-MB level in serum at 25 mg/kg, ip administered on day 7 to 12 post-infection measured after day 120 relative to control; format: organism-based; set-up: dose 25 mg/kg, route intraperitoneal; conditions: in vivo
Vero = assay: Cytotoxicity against African green monkey Vero cells assessed as cell viability after 72 hrs by propidium iodide/fluorescein diacetate staining-based flow cytometric analysis; conditions: Chlorocebus sabaeus
Mus musculus [17] = assay: Toxicity in BALB/c albino mouse infected with blood trypomastigote stage of Trypanosoma cruzi assessed as increase in AST/GOT level in serum at 25 mg/kg, ip administered on day 7 to 12 post-infection measured after day 120 relative to control; format: organism-based; set-up: dose 25 mg/kg, route intraperitoneal; conditions: in vivo
Trypanosoma cruzi [18] = assay: Antitrypanosomal activity against epimastigote stage of Trypanosoma cruzi IRHOD/CO/2008/SN3 assessed as change in excreted alanine level at IC25 after 96 hrs by 1H NMR analysis relative to control; format: functional
Trypanosoma cruzi [19] = assay: Antitrypanosomal activity against epimastigote stage of Trypanosoma cruzi IRHOD/CO/2008/SN3 assessed as appearance of swollen structure filled with empty vacuoles at IC25 after 72 hrs by TEM analysis; format: functional, organism-based
Trypanosoma cruzi [20] = assay: (§1) Antitrypanosomal activity against amastigote stage of Trypanosoma cruzi IRHOD/CO/2008/SN3 infected in African green monkey Vero cells assessed as decrease in infection rate at IC25 preincubated for 12 hrs followed by compound washout measured every 48 hrs for 10 days by Neubauer hemocytometric chamber analysis relative to control; format: functional
Trypanosoma cruzi [21] = assay: Antitrypanosomal activity against trypomastigote stage of Trypanosoma cruzi IRHOD/CO/2008/SN3 assessed as reduction of trypomastigote number per mililiter of culture medium at IC25 preincubated for 12 hrs followed by compound washout measured every 48 hrs for 10 days by Neubauer hemocytometric chamber analysis relative to control; format: functional
Trypanosoma cruzi [22] = assay: Antitrypanosomal activity against epimastigote stage of Trypanosoma cruzi IRHOD/CO/2008/SN3 assessed as mortality at IC25 after 72 hrs by TEM analysis; format: functional, organism-based
Trypanosoma cruzi [23] = assay: as §1, with “reduction of amastigote number per cell” for “decrease in infection rate”; format: functional
Mus musculus [24] = assay: Toxicity in BALB/c albino mouse infected with blood trypomastigote stage of Trypanosoma cruzi assessed as increase in uric acid level in serum at 25 mg/kg, ip administered on day 7 to 12 post-infection measured after day 120 relative to control; format: organism-based; set-up: dose 25 mg/kg, route intraperitoneal; conditions: in vivo
Trypanosoma cruzi [25] = assay: Antitrypanosomal activity against epimastigote stage of Trypanosoma cruzi IRHOD/CO/2008/SN3 assessed as appearance of enormous reservosomes at IC25 after 72 hrs by TEM analysis; format: functional, organism-based
Trypanosoma cruzi [26] = assay: Antitrypanosomal activity against epimastigote stage of Trypanosoma cruzi IRHOD/CO/2008/SN3 assessed as parasite growth inhibition after 72 hrs by Neubauer hemocytometric chamber analysis; format: functional, organism-based; conditions: IRHOD/CO/2008/SN3, 72 h
Trypanosoma cruzi [27] = assay: Antitrypanosomal activity against amastigote stage of Trypanosoma cruzi IRHOD/CO/2008/SN3 infected in African green monkey Vero cells assessed as parasite growth inhibition after 72 hrs by Giemsa staining-based microscopic analysis; format: functional, organism-based; conditions: IRHOD/CO/2008/SN3, Vero
Mus musculus [28] = assay: Toxicity in BALB/c albino mouse infected with blood trypomastigote stage of Trypanosoma cruzi assessed as change in creatinephophokinase-MB level in serum at 25 mg/kg, ip administered on day 7 to 12 post-infection measured after day 120 relative to control; format: organism-based; set-up: dose 25 mg/kg, route intraperitoneal; conditions: in vivo
Mus musculus [29] = assay: Toxicity in BALB/c albino mouse infected with blood trypomastigote stage of Trypanosoma cruzi assessed as increase in total bilirubin level in serum at 25 mg/kg, ip administered on day 7 to 12 post-infection measured after day 120 relative to control; format: organism-based; set-up: dose 25 mg/kg, route intraperitoneal; conditions: in vivo
Trypanosoma cruzi [30] = assay: Antitrypanosomal activity against epimastigote stage of Trypanosoma cruzi IRHOD/CO/2008/SN3 assessed as discontinuation of parasite outer membrane at IC25 after 72 hrs by TEM analysis; format: functional, organism-based
Mus musculus [31] = assay: Toxicity in BALB/c albino mouse infected with blood trypomastigote stage of Trypanosoma cruzi assessed as increase in LDH level in serum at 25 mg/kg, ip administered on day 7 to 12 post-infection measured after day 120 relative to control; format: organism-based; set-up: dose 25 mg/kg, route intraperitoneal; conditions: in vivo
Trypanosoma cruzi [32] = assay: Antitrypanosomal activity against epimastigote stage of Trypanosoma cruzi IRHOD/CO/2008/SN3 assessed as mitochondrial swelling with rupture of membrane at IC25 after 72 hrs by TEM analysis; format: functional, organism-based
Trypanosoma cruzi [33] = assay: Antitrypanosomal activity against epimastigote stage of Trypanosoma cruzi IRHOD/CO/2008/SN3 assessed as disappearance of microtubular structure at IC25 after 72 hrs by TEM analysis; format: functional, organism-based
Trypanosoma cruzi [34] = assay: Antitrypanosomal activity against epimastigote stage of Trypanosoma cruzi IRHOD/CO/2008/SN3 assessed as partially scalloped parasite outer membrane at IC25 after 72 hrs by TEM analysis; format: functional, organism-based

SMILES: CN(CCCNc1c(NCCC[N+](C)(C)C)c(=O)c1=O)CCCNc1c(NCCC[N+](C)(C)C)c(=O)c1=O.[I-].[I-]
Activity (Trypanosoma cruzi [1]): -12%
Activity (Mus musculus [2]): < 10%
selectivity ratio [3]: 16.2
Activity (Mus musculus [4]): < 10%
Activity (Trypanosoma cruzi [5]): Active
selectivity ratio [6]: 17.5
Activity (Mus musculus [7]): Non-toxic
Activity (Trypanosoma cruzi [8]): -20.6%
Activity (Mus musculus [9]): < 10%
Activity (Mus musculus [10]): < 10%
Activity (Trypanosoma cruzi [11]): Active
inhibition in vivo at 25 mg/kg (Trypanosoma cruzi [12]): 37%
Activity (Trypanosoma cruzi [13]): 37.4%
Activity (Mus musculus [14]): < 10%
Activity (Trypanosoma cruzi [15]): -21.2%
Activity (Mus musculus [16]): 30%
pIC50 (Vero): 3.52
Activity (Mus musculus [17]): 40%
Activity (Trypanosoma cruzi [18]): -13.3%
Activity (Trypanosoma cruzi [19]): Active
inhibition (INH) (Trypanosoma cruzi [20]): 30%
inhibition (INH) (Trypanosoma cruzi [21]): 49%
Activity (Trypanosoma cruzi [22]): Active
inhibition (INH) (Trypanosoma cruzi [23]): 30%
Activity (Mus musculus [24]): 30%
Activity (Trypanosoma cruzi [25]): Active
pIC50 (Trypanosoma cruzi [26]): 4.73
pIC50 (Trypanosoma cruzi [27]): 4.77

SMILES: CN(C)CCCNc1c(NCCCNc2c(NCCCN(C)C)c(=O)c2=O)c(=O)c1=O
selectivity ratio [3]: 0.1
selectivity ratio [6]: 0.2
pIC50 (Vero): 4.94
pIC50 (Trypanosoma cruzi [26]): 4.02
pIC50 (Trypanosoma cruzi [27]): 4.34

SMILES: NCc1ccc(Nc2c(O)c(=O)c2=O)cc1
selectivity ratio [3]: 0.4
selectivity ratio [6]: 0.5
pIC50 (Vero): 4.44
pIC50 (Trypanosoma cruzi [26]): 4.05
pIC50 (Trypanosoma cruzi [27]): 4.14

SMILES: CCCCNc1c(NCCN(C)C)c(=O)c1=O
Activity (Trypanosoma cruzi [1]): -18.6%
Activity (Mus musculus [28]): < 10%
selectivity ratio [3]: 24.8
Activity (Mus musculus [4]): < 10%
Activity (Trypanosoma cruzi [5]): Active
selectivity ratio [6]: 28
Activity (Mus musculus [29]): 40%
Activity (Mus musculus [7]): Non-toxic
Activity (Trypanosoma cruzi [8]): -23.9%
Activity (Mus musculus [9]): < 10%
Activity (Trypanosoma cruzi [11]): Active
inhibition in vivo at 25 mg/kg (Trypanosoma cruzi [12]): 31%
Activity (Trypanosoma cruzi [30]): Active
Activity (Trypanosoma cruzi [13]): -11.1%
Activity (Mus musculus [31]): 40%
Activity (Mus musculus [14]): < 10%
Activity (Trypanosoma cruzi [15]): -28.3%
Activity (Trypanosoma cruzi [32]): Active
pIC50 (Vero): 3.58
Activity (Mus musculus [17]): 40%
Activity (Trypanosoma cruzi [18]): -11.1%
inhibition (INH) (Trypanosoma cruzi [20]): 35%
inhibition (INH) (Trypanosoma cruzi [21]): 18%
inhibition (INH) (Trypanosoma cruzi [23]): 35%
Activity (Mus musculus [24]): 30%
Activity (Trypanosoma cruzi [33]): Active
pIC50 (Trypanosoma cruzi [26]): 4.98
pIC50 (Trypanosoma cruzi [27]): 5.03
Activity (Trypanosoma cruzi [34]): Active

Now from value to molecule, other results behind:

pIC50 (Trypanosoma cruzi [26]): 4.29
pIC50 (Trypanosoma cruzi [27]): 4.36
SMILES: O=c1c(O)c(Nc2ccccc2O)c1=O
selectivity ratio [3]: 4.5
selectivity ratio [6]: 5.2
pIC50 (Vero): 3.64

pIC50 (Trypanosoma cruzi [26]): 4.80
pIC50 (Trypanosoma cruzi [27]): 5.00
SMILES: CN(C)c1ccc(Nc2c(O)c(=O)c2=O)cc1
selectivity ratio [3]: 0.8
selectivity ratio [6]: 1.3
pIC50 (Vero): 4.89

pIC50 (Trypanosoma cruzi [26]): 4.22
pIC50 (Trypanosoma cruzi [27]): 4.41
SMILES: C[N+](C)(C)CCNc1c(NCc2ccccc2)c(=O)c1=O
selectivity ratio [3]: 1.2
selectivity ratio [6]: 1.9
pIC50 (Vero): 4.13

pIC50 (Trypanosoma cruzi [26]): 4.35
pIC50 (Trypanosoma cruzi [27]): 4.58
SMILES: CCCCCCCCCCCCCCCCNc1c(NCC[N+](C)(C)C)c(=O)c1=O
selectivity ratio [3]: 3.4
selectivity ratio [6]: 5.7
pIC50 (Vero): 3.82
